Test results: US12630509B2, “Heterocyclic NMDA antagonists” (TAKEDA PHARMACEUTICAL COMPANY LIMITED, priority 2019, dated 2026)

What follows are compounds tested against NMDA receptor composed of four subunits including two sets of heterodimers of NR1 and NR2B (GRIN1/GRIN2B) expressed in HEK 293 cells (Homo sapiens, UniProt Q13224) (assay: NR2B Ca2+ influx assay). Conditions: HEK293, final concentration 10 μM; glutamic acid and glycine induced Ca2+ influx, HEK 293 cells expressing human GRIN1 and GRIN2B; read-out: % inhibited(10 μM).
NMDA receptor composed of four subunits including two sets of heterodimers of NR1 and NR2B (GRIN1/GRIN2B) expressed in HEK 293 cells, sequence (Q13224 27-1484, other chains not shown): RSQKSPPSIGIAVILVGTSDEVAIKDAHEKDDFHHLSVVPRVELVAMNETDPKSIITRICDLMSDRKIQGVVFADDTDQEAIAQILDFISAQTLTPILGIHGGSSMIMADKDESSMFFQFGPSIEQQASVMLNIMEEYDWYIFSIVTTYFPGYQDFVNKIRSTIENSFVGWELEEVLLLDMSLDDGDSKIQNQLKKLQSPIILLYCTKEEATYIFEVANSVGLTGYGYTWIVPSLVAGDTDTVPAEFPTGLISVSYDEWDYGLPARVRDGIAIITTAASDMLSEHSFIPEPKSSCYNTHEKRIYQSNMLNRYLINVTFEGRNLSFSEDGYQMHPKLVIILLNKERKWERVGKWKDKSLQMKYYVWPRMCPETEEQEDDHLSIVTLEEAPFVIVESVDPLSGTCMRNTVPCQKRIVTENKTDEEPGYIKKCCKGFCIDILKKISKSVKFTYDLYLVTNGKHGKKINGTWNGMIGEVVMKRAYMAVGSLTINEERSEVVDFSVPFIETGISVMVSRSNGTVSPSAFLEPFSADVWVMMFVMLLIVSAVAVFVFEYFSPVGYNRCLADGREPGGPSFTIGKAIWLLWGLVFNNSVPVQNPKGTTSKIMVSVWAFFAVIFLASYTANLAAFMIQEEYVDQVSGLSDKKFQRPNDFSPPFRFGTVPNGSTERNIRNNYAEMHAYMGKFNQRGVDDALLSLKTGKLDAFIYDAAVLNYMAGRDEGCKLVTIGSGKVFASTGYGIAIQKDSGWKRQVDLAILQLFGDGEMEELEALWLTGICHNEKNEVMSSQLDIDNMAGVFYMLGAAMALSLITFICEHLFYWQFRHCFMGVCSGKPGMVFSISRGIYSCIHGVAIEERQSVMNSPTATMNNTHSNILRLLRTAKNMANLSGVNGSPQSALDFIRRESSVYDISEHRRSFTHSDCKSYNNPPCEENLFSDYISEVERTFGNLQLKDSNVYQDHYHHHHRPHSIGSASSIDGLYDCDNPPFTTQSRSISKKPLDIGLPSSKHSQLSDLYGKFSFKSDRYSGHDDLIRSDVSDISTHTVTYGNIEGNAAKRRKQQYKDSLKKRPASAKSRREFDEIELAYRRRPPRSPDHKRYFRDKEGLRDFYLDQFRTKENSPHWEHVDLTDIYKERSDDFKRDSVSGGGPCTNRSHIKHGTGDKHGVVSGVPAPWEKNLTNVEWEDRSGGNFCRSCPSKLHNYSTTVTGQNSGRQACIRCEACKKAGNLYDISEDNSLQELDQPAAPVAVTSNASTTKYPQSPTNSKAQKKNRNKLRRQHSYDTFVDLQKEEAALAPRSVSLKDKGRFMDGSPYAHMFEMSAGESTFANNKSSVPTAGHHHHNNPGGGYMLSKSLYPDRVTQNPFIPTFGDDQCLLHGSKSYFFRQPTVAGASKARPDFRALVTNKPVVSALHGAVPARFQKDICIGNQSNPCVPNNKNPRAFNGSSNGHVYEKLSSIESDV
Type: cell-based
Method: The HEK 293 cells that express GRIN1 and GRIN2B were purchased from ChanTest (human NMDA (NR1/NR2B) receptor-expressing, stable replicating cell line (HEK 293) catalog no. CT6121).
Intracellular calcium-ion (Ca^2+) influx caused by glycine and glutamic acid respectively binding to NR1 and NR2B was used as an index of NMDA receptor activation.
The HEK 293 cells expressing GRIN1 and GRIN2B were cultured in a cell culture flask in an incubator (37° C., in 5% CO2) using a DMEM/F-12 (Cosmo Bio, 10-092-CM) medium supplemented with 10% FBS (fetal bovine serum, AusGene), 100 units/mL penicillin, 100 μg/mL streptomycin, 500 μg/mL neomycin, 100 μg/mL Zeocin (registered trademark of Invitrogen), and 5 μg/mL blasticidin.
On the day before the assay, the cells were detached from the flask by trypsinization, suspended in a seeding medium (DMEM (Invitrogen, 31053) supplemented with 10% FBS, 100 units/mL penicillin, and 100 μg/mL streptomycin) so as to be 8×10^5 cells/mL, seeded at 25 μL per well in a 384-well plate (Falcon, 356663) so as to be 20,000 cells/well, and cultured overnight using the incubator. On the day of the assay, tetracycline (Wako Pure Chemical, 209-16561) was diluted with the seeding medium at 2 μg/mL, and added at 25 μL/well to the plate into which the cells were seeded, and this was cultured for 2 hours in the incubator. Afterward, the medium was removed and washed with an assay buffer (137 mM NaCl, 4 mM KCl, 1.8 mM CaCl2), 10 mM HEPES (pH 7.2), 10 mM glucose, 0.1% BSA) at 50 μL/well. Next, a loading buffer (buffer wherein 2.5 μM Fluo-4 AM, 2 mM amaranth, and 1 mM tartrazine are added to the assay buffer) was added at 25 μL/well, and this was incubated in the incubator for 30 minutes and for 15 minutes at room temperature. Solutions wherein the Example compounds were diluted with the above-mentioned assay buffer so as to be 30 μM (final concentration 10 μM) were added at 25 μL/well, and these were left standing for 15 minutes at room temperature. Using FDSS7000EX/μCELL (Hamamatsu Photonics), an assay buffer including 30 μM glutamic acid and 30 μM glycine was added at 25 μL/well, and a fluorescence signal of an Excitation wavelength of 480 nm and an Emission wavelength of 540 nm was measured every 3 seconds for 5 minutes. The inhibitory activity was calculated as a relative activity value (inhibitory rate) wherein relative to an integrated value of florescence values of each well, an integrated value of fluorescence values of a well into which an assay buffer without glutamic acid and glycine was defined as 100% inhibition.

Compared with `Cc1ccc(Oc2ccc(CN3C(=O)C[C@@H](O)[C@H]3C)cc2)cc1` [Example 12, (4R,5R)-4-hydroxy-5-methyl-1-{[4-(4-methylphenoxy)pheny]methyl}pyrrolidin-2-one], `Cc1ccc(Oc2ccc(CN3C(=O)C[C@H](O)[C@@H]3C)cc2)cc1` [Example 6, (4S,5S)-4-hydroxy-5-methyl-1-{[4-(4-methylphenoxy)phenyl]methyl}pyrrolidin-2-one] is higher in inhibition at 10 µM: 93% for the first, 97% for the second.

`Cc1cc(F)c(Oc2ccc(CN3C(=O)C[C@H](O)[C@@H]3C)cn2)c(F)c1` [Example 31, (4S,5S)-1{[-6-(2,6-difluoro-4-methylphenoxy)pyridin-3-yl]methyl}4-hydroxy-5-methylpyrrolidin-2-one] and `Cc1ccc(Oc2ccc(CN3C(=O)C[C@H](O)[C@@H]3C)cn2)c(F)c1` [Example 26, (4S,5S)-1-{[6-(2-fluoro-4-methylphenoxy)pyridin-3-yl]methyl}-4-hydroxy-5-methylpyrrolidin-2-one] are the same in inhibition at 10 µM: 97% for the first, 97% for the second.

Compared with `Cc1cc(F)c(Oc2ncc(CN3C(=O)OC[C@@H]3C)cn2)c(F)c1` [Example 32, (4S)-3-{[2-(2,6-difluoro-4-methylphenoxy)pyrimidin-5-yl]methyl}-4-methyl-1,3-oxazolidin-2-one], `Cc1ccc(Oc2ncc(CN3C(=O)OC[C@@H]3C)cn2)c(F)c1` [Example 23, (4S)-3-{[2-(2-fluoro-4-methylphenoxy)pyrimidin-5-yl]methyl}-4-methyl-1,3-oxazolidin-2-one] is higher in inhibition at 10 µM: 92% for the first, 94% for the second.

Going from `Cc1ccc(Oc2ccc(CN3C(=O)OC[C@@H]3C)cc2)cc1` [Example 18, (4S)-4-methy-3-{[4-(4-methylphenoxy)phenyl]methyl}1,3-oxazolidin-2-one] to `Cc1ccc(Oc2ccc(CN3C(=O)OC[C@@H]3C)cn2)cc1` [Example 20, (4S)-4-methyl-3-{[6-(4-methylphenoxy)pyridin-3-yl]methyl}-1,3-oxazolidin-2-one], the inhibition at 10 µM falls from 98% to 97%.

Compared with `Cc1ccc(Oc2ncc(CN3C(=O)OC[C@@H]3C)cn2)cc1` [Example 30, (4S)-4-methyl-3-{[2-(4-methylphenoxy)pyrimidin-5-yl]methyl}-1,3-oxazolidin-2-one], `Cc1ccc(Oc2ncc(CN3C(=O)CC[C@@H]3C)cn2)cc1` [Example 22, (5S)-5-methyl-1-{[2-(4-methylphenoxy)pyrimidin-5-yl]methyl}pyrrolidin-2-one] is higher in inhibition at 10 µM: 90% for the first, 95% for the second.

First: C[C@H]1[C@@H](O)CC(=O)N1Cc1ccc(Oc2ccc(F)cc2)cc1 [Example 9, (4S,5S)-1-{[4-(4-fluorophenoxy)phenyl]methyl}-4-hydroxy-5-methylpyrrolidin-2-one]
Second: CC[C@H]1[C@@H](O)CC(=O)N1Cc1ccc(Oc2ccc(C)cc2)cc1 [Example 7, (4S,5S)-5-ethyl-4-hydroxy-1-{[4-(4-methylphenoxy)phenyl]methyl}pyrrolidin-2-one]
The inhibition at 10 µM of the first is lower: 96% for the first, 98% for the second.

First: Cc1ccc(Oc2ncc(CN3C(=O)C[C@H](O)[C@@H]3C)cn2)cc1 [Example 15, (4S,5S)-4-hydroxy-5-methyl-1-{[2-(4-methylphenoxy)pyrimidin-5-yl]methyl}pyrrolidin-2-one]
Second: C[C@H]1[C@@H](O)CC(=O)N1Cc1ccc(Oc2ccc(C(F)(F)F)cc2F)nc1 [Example 41, (4S,5S)-1-({6-[2-fluoro-4-(trifluoromethyl)phenoxy]pyridin-3-yl}methyl)-4-hydroxy-5-methylpyrrolidin-2-one]
The inhibition at 10 µM of the first is lower: 90% for the first, 95% for the second.

With `C[C@H]1CCC(=O)N1Cc1cnc(Oc2ccc(C(F)F)cc2F)nc1` [Example 42, (5S)-1-({2-[4-(difluoromethyl)-2-fluorophenoxy]pyrimidin-5-yl}methyl)-5-methylpyrrolidin-2-one] the inhibition at 10 µM was 97%.

Same assay, conditions: final concentration 10 μM; glutamic acid and glycine induced Ca2+ influx, HEK 293 cells expressing human GRIN1 and GRIN2B

With `Cc1ccc(Oc2ccc(CN3C(=O)C[C@H](O)[C@@H]3C)cn2)cc1.Cl` [Example 14, (4S,5S)-4-hydroxy-5-methyl-1-{[6-(4-methylphenoxy)pyridin-3-yl]methyl}pyrrolidin-2-one] the “% inhibited(10 μM)” value was 96%.
